Columns and labels:
[1] = system: platelet aggregation induced by ADP in rat platelet-rich plasma (PRP); assay: Platelet aggregation inhibitory activity during oral administration in a rat (ex vivo, ADP-induced); conditions: male Wistar rats, 1 mg/10 ml/kg orally, blood collected 4 hours after administration, ADP final concentration 3 μM, vs. control PRP (solvent only), read-out: Inhibition Rates (%)
Description: 1 mg/10 ml/kg of the test compound was orally administered by gavage to male rats (Slc: Wistar, age 8 to 9 weeks) that had been fasted overnight. 4 hours after administration, a syringe containing 1/10 volume of a 3.13% sodium citrate solution was used to collect blood from the abdominal aorta of a rat under anesthesia. From the collected blood, platelet-rich plasma (PRP) and platelet-poor plasma (PPP) were prepared according to the method described in the method for measuring human platelet aggregation inhibitory activity. PRP was left at rest at 16° C. for 30 minutes, and subsequently used for measurement.
200 μL of the separately collected PRP was dispensed into a cuvette for the aggregation test, followed by incubation at 37° C. for 2 minutes, and subsequently 2 μL of 0.3 mM ADP was added (final concentration 3 μM) to induce platelet aggregation.
Platelet aggregation was measured for 8 minutes using an aggregometer (MCM HEMA TRACER 313M; MC MEDICAL, INC.). With the light transmittance rate of PPP being set as an aggregation value of 100%, the maximum aggregation rate of PRP was determined, and compared with the maximum aggregation rate of control PRP (rat administered only with a solvent) to calculate inhibition rates.

[2] = system: platelet aggregation induced by ADP in human platelet-rich plasma (PRP); assay: Human platelet aggregation inhibitory activity (ADP-induced, platelet-rich plasma); assay type: cell-based; conditions: 8 min, ADP final concentration 20 μM, maximum aggregation rate, measured for 8 minutes
Description: A blood collecting syringe containing 1/10 volume of a 3.8% sodium citrate solution was used to collect blood from radial vein of a healthy person. The collected blood was centrifuged at 180×g at room temperature for 10 minutes to separate the supernatant (platelet-rich plasma; PRP). After PRP was separately collected, the remaining blood was centrifuged at 1,600×g for 10 minutes to separately collect platelet-poor plasma (PPP) of the upper layer. PRP was left at rest at 16° C. for 30 minutes, and subsequently used for measurement.
200 μL of the separately collected PRP was dispensed into a cuvette for the aggregation test, and 1 μL of dimethylsulfoxide (control) or a test compound solution diluted with dimethylsulfoxide was added, followed by incubation at 37° C. for 2 minutes. Subsequently, 2 μL of 2 mM ADP was added (final concentration 20 μM) to induce platelet aggregation.
Platelet aggregation was measured for 8 minutes using an aggregometer (MCM HEMA TRACER 313M; MC MEDICAL, INC.). With the light transmittance rate of PPP being set as an aggregation value of 100%, the maximum aggregation rate was determined for each concentration of the test compounds to calculate IC50 values.

Structure (SMILES)	inhibition at 1 mg/kg [1] [%]	IC50 [2] [µM]
Cc1cc(-c2ccccc2O[C@H](C)CC(=O)O)ccc1C(=O)N1CCC(N2C(=O)C(C)(C)Oc3ncc(Cl)cc32)CC1 [Example 16, (3R)-3-[(4′-{[4-(7-Chloro-3,3-dimethyl-2-oxo-2,3-dihydro-1H-pyrido[2,3-b][1,4]oxazin-1-yl)piperidin-1-yl]carbonyl}-3′-methylbiphenyl-2-yl)oxy]butanoic acid]	40	6.5
C[C@@H](COc1ccccc1-c1ccc(C(=O)N2CCC(N3C(=O)C(C)(C)Oc4ncc(Cl)cc43)CC2)c(F)c1)C(=O)O [Example 25, (2S)-3-[(4′-{[4-(7-Chloro-3,3-dimethyl-2-oxo-2,3-dihydro-1H-pyrido[2,3-b][1,4]oxazin-1-yl)piperidin-1-yl]carbonyl}-3′-fluorobiphenyl-2-yl)oxy]-2-methylpropanoic acid]	46	5.1
Cc1ccc(-c2ccc(C(=O)N3CCC(N4C(=O)C(C)(C)Oc5ncc(Cl)cc54)CC3)c(F)c2)c(O[C@H](C)CC(=O)O)c1 [Example 55, (3R)-3-[(4′-{[4-(7-Chloro-3,3-dimethyl-2-oxo-2,3-dihydro-1H-pyrido[2,3-b][1,4]oxazin-1-yl)piperidin-1-yl]carbonyl}-3′-fluoro-4-methylbiphenyl-2-yl)oxy]butanoic acid]	68	8.4
C[C@@H](Oc1ccccc1-c1ccc(C(=O)N2CCC(N3C(=O)C(C)(C)Oc4ncc(Cl)cc43)CC2)c(F)c1)[C@@H](C)C(=O)O [Example 9, (2R,3R)-3-[(4′-{[4-(7-Chloro-3,3-dimethyl-2-oxo-2,3-dihydro-1H-pyrido[2,3-b][1,4]oxazin-1-yl)piperidin-1-yl]carbonyl}-3′-fluorobiphenyl-2-yl)oxy]-2-methylbutanoic acid]	52	2.1
C[C@@H]1Oc2ncc(Cl)cc2N(C2CCN(C(=O)c3ccc(-c4cc(F)ccc4OC[C@H](C)C(=O)O)cc3F)CC2)C1=O [Example 26, (2S)-3-{[4′-({4-[(3S)-7-Chloro-3-methyl-2-oxo-2,3-dihydro-1H-pyrido[2,3-b][1,4]oxazin-1-yl]piperidin-1-yl}carbonyl)-3′,5-difluorobiphenyl-2-yl]oxy}-2-methylpropanoic acid]	55	7.3
C[C@@H](COc1ccccc1-c1ccc(C(=O)N2CCC(N3C(=O)C(C)(C)Cc4ncc(Cl)cc43)CC2)c(F)c1)C(=O)O [Example 11, (2S)-3-[(4′-{[4-(7-Chloro-3,3-dimethyl-2-oxo-3,4-dihydro-1,5-naphthyridin-1(2H)-yl)piperidin-1-yl]carbonyl}-3′-fluorobiphenyl-2-yl)oxy]-2-methylpropanoic acid]	45	6.1
C[C@H](CC(=O)O)Oc1ccccc1-c1ccc(C(=O)N2CCC(N3C(=O)C(C)(C)Oc4ncc(Cl)cc43)CC2)c(N)c1 [Example 50, (3R)-3-[(3′-Amino-4′-{[4-(7-chloro-3,3-dimethyl-2-oxo-2,3-dihydro-1H-pyrido[2,3-b][1,4]oxazin-1-yl)piperidin-1-yl]carbonyl}biphenyl-2-yl)oxy]butanoic acid]	53	0.87
Cc1cc(-c2ccccc2O[C@H](C)CC(=O)O)ccc1C(=O)N1CCC(N2C(=O)C(C)(C)Cc3ncc(Cl)cc32)CC1 [Example 36, (3R)-3-[(4′-{[4-(7-Chloro-3,3-dimethyl-2-oxo-3,4-dihydro-1,5-naphthyridin-1(2H)-yl)piperidin-1-yl]carbonyl}-3′-methylbiphenyl-2-yl)oxy]butanoic acid]	47	5.2
Cc1cc(-c2cc(F)ccc2O[C@H](C)CC(=O)O)ccc1C(=O)N1CCC(N2C(=O)C(C)(C)Oc3ncc(Cl)cc32)CC1 [Example 17, (3R)-3-[(4′-{[4-(7-Chloro-3,3-dimethyl-2-oxo-2,3-dihydro-1H-pyrido[2,3-b][1,4]oxazin-1-yl)piperidin-1-yl]carbonyl}-5-fluoro-3′-methylbiphenyl-2-yl)oxy]butanoic acid]	52	9.8
Cc1cc(-c2cc(F)ccc2O[C@H](C)CC(=O)O)ccc1C(=O)N1CCC(N2C(=O)C(C)(C)Cc3ncc(Cl)cc32)CC1 [Example 45, (3R)-3-[(4′-{[4-(7-Chloro-3,3-dimethyl-2-oxo-3,4-dihydro-1,5-naphthyridin-1(2H)-yl)piperidin-1-yl]carbonyl}-5-fluoro-3′-methylbiphenyl-2-yl)oxy]butanoic acid]	51	11
C[C@H](CC(=O)O)Oc1ccc(F)cc1-c1ccc(C(=O)N2CCC(N3C(=O)C(C)(C)Cc4ncc(Cl)cc43)CC2)c(F)c1 [Example 14, (3R)-3-[(4′-{[4-(7-Chloro-3,3-dimethyl-2-oxo-3,4-dihydro-1,5-naphthyridin-1(2H)-yl)piperidin-1-yl]carbonyl}-3′,5-difluorobiphenyl-2-yl)oxy]butanoic acid]	79	3.4
C[C@H](CC(=O)O)Oc1ccc(F)cc1-c1ccc(C(=O)N2CCC(N3C(=O)C(C)(C)Oc4ncc(Cl)cc43)CC2)c(F)c1 [Example 13, (3R)-3-[(4′-{[4-(7-Chloro-3,3-dimethyl-2-oxo-2,3-dihydro-1H-pyrido[2,3-b][1,4]oxazin-1-yl)piperidin-1-yl]carbonyl}-3′,5-difluorobiphenyl-2-yl)oxy]butanoic acid]	63	4.1
C[C@H](CC(=O)O)Oc1ccccc1-c1ccc(C(=O)N2CCC(N3C(=O)C(C)(C)Oc4ncc(Cl)cc43)CC2)c(F)c1 [Example 6, (3R)-3-[(4′-{[4-(7-Chloro-3,3-dimethyl-2-oxo-2,3-dihydro-1H-pyrido[2,3-b][1,4]oxazin-1-yl)piperidin-1-yl]carbonyl}-3′-fluorobiphenyl-2-yl)oxy]butanoic acid]	54	2.4
C[C@H](CC(=O)O)Oc1ccccc1-c1cnc(C(=O)N2CCC(N3C(=O)[C@H](C)Oc4ncc(Cl)cc43)CC2)c(F)c1 [Example 40, (3R)-3-{2-[6-({4-[(3S)-7-Chloro-3-methyl-2-oxo-2,3-dihydro-1H-pyrido[2,3-b][1,4]oxazin-1-yl]piperidin-1-yl}carbonyl)-5-fluoropyridin-3-yl]phenoxy}butanoic acid]	–	1.1
CC(C)(COc1ccccc1-c1ccc(C(=O)N2CCC(N3C(=O)C(C)(C)Oc4ncc(Cl)cc43)CC2)c([N+](=O)[O-])c1)C(=O)O [Example 22, 3-[(4′-{[4-(7-Chloro-3,3-dimethyl-2-oxo-2,3-dihydro-1H-pyrido[2,3-b][1,4]oxazin-1-yl)piperidin-1-yl]carbonyl}-3′-nitrobiphenyl-2-yl)oxy]-2,2-dimethylpropanoic acid]	–	5.7
CC(C)(COc1ccccc1-c1ccc(C(=O)N2CCC(N3C(=O)C(C)(C)Oc4ncc(C(F)(F)F)cc43)CC2)c(F)c1)C(=O)O [Example 3, 3-{[4′-({4-[3,3-Dimethyl-2-oxo-7-(trifluoromethyl)-2,3-dihydro-1H-pyrido[2,3-b][1,4]oxazin-1-yl]piperidin-1-yl}carbonyl)-3′-fluorobiphenyl-2-yl]oxy}-2,2-dimethylpropanoic acid]	–	3.8
CC(C)(COc1ccccc1-c1ccc(C(=O)N2CCC(N3C(=O)C4(CC4)Oc4ncc(Cl)cc43)CC2)c(Cl)c1)C(=O)O [Example 18, 3-[(3′-Chloro-4′-{[4-(7′-chloro-2′-oxospiro[cyclopropane-1,3′-pyrido[2,3-b][1,4]oxazin]-1′(2′H)-yl)piperidin-1-yl]carbonyl}biphenyl-2-yl)oxy]-2,2-dimethylpropanoic acid]	–	10
C[C@H](CC(=O)O)Oc1ccccc1-c1cnc(C(=O)N2CCC(N3C(=O)C(C)(C)Oc4ncc(Cl)cc43)CC2)c(F)c1 [Example 39, (3R)-3-[2-(6-{[4-(7-Chloro-3,3-dimethyl-2-oxo-2,3-dihydro-1H-pyrido[2,3-b][1,4]oxazin-1-yl)piperidin-1-yl]carbonyl}-5-fluoropyridin-3-yl)phenoxy]butanoic acid]	–	1
C[C@H](CC(=O)O)Oc1ccc(F)cc1-c1cnc(C(=O)N2CCC(N3C(=O)[C@H](C)Oc4ncc(Cl)cc43)CC2)c(F)c1 [Example 43, (3R)-3-{2-[6-({4-[(3S)-7-Chloro-3-methyl-2-oxo-2,3-dihydro-1H-pyrido[2,3-b][1,4]oxazin-1-yl]piperidin-1-yl}carbonyl)-5-fluoropyridin-3-yl]-4-fluorophenoxy}butanoic acid]	–	2.6

— US8729095B2, “3-(biaryloxy)propionic acid derivatives for prevention and/or treatment of thromboembolic diseases” (Daiichi Sankyo Company, Limited, priority 2009, dated 2014)
